PubChem BioAssay (NCI)
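Cultured in 96-well plates, cells were exposed to test compound for 48 hours across five concentrations. At the TGI there is no net growth.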

Legend:
Assay in all cases: NCI tumour cell line growth inhibition, 48 h
[1] = test system: HS 578T breast
[2] = test system: HOP-62 NSCLC
[3] = test system: COLO 205 colon
[4] = test system: IGROV1 ovarian
[5] = test system: TK-10 renal
[6] = test system: MOLT-4 leukemia
[7] = test system: UO-31 renal
[8] = test system: T-47D breast
[9] = test system: HT29 colon
[10] = test system: NCI-H522 lung
[11] = test system: MDA-MB-435
[12] = test system: SK-MEL-5 melanoma
[13] = test system: 786-0 renal
[14] = test system: ACHN renal
[15] = test system: SNB-19 CNS
[16] = test system: SR leukemia
[17] = test system: U251 CNS
[18] = test system: UACC-62 melanoma
[19] = test system: SF-539 CNS
[20] = test system: DU-145 prostate
[21] = test system: SF-295 CNS
[22] = test system: PC-3 prostate
[23] = test system: SF-268 CNS
[24] = test system: MDA-MB-231 breast
[25] = test system: MALME-3M melanoma
[26] = test system: SK-MEL-2 melanoma
[27] = test system: OVCAR-3 ovarian
[28] = test system: KM12 colon
[29] = test system: NCI-H460 lung
[30] = test system: SK-MEL-28 melanoma
[31] = test system: EKVX NSCLC
[32] = test system: NCI-H23 lung
[33] = test system: MCF7 breast
[34] = test system: OVCAR-4 ovarian
[35] = test system: SW-620 colon
[36] = test system: HCT-15 colon
[37] = test system: NCI/ADR-RES ovarian
[38] = test system: M14 melanoma
[39] = test system: OVCAR-5 ovarian
[40] = test system: RXF 393 renal
[41] = test system: CCRF-CEM leukemia
[42] = test system: UACC-257 melanoma
[43] = test system: K-562 leukemia
[44] = test system: A498 renal
[45] = test system: RPMI-8226 leukemia
[46] = test system: BT-549 breast
[47] = test system: A549 NSCLC
[48] = test system: HCT-116 colon
[49] = test system: SK-OV-3 ovarian
[50] = test system: OVCAR-8 ovarian
[51] = test system: LOX IMVI melanoma
[52] = test system: CAKI-1 renal
[53] = test system: HOP-92 NSCLC
[54] = test system: HL-60(TB) leukemia
[55] = test system: SN12C renal
[56] = test system: NCI-H226 lung
[57] = test system: SNB-75 CNS
[58] = test system: HCC-2998 colon

## CN(C)c1ccc(/C=c2/c3ccccc3n3c2cc(NC(=O)NCCC[N+](C)(C)C)[n+]3C)cc1
[1]
  TGI: > 100 µM
[2]
  TGI: > 100 µM
[3]
  TGI: > 100 µM
[4]
  TGI: 46.9 µM
[5]
  TGI: > 100 µM
[6]
  TGI: > 100 µM
[7]
  TGI: > 100 µM
[8]
  TGI: > 100 µM
[9]
  TGI: > 100 µM
[10]
  TGI: > 100 µM
[11]
  TGI: > 100 µM
[12]
  TGI: > 100 µM
[13]
  TGI: > 100 µM
[14]
  TGI: > 100 µM
[15]
  TGI: > 100 µM
[16]
  TGI: > 100 µM
[17]
  TGI: > 100 µM
[18]
  TGI: > 100 µM
[19]
  TGI: > 100 µM
[20]
  TGI: > 100 µM
[21]
  TGI: > 100 µM
[22]
  TGI: > 100 µM
[23]
  TGI: > 100 µM
[24]
  TGI: > 100 µM
[25]
  TGI: > 100 µM
[26]
  TGI: > 100 µM
[27]
  TGI: > 100 µM
[28]
  TGI: > 100 µM
[29]
  TGI: > 100 µM
[30]
  TGI: > 100 µM
[31]
  TGI: > 100 µM
[32]
  TGI: > 100 µM
[33]
  TGI: > 100 µM
[34]
  TGI: 50.1 µM
[35]
  TGI: > 100 µM
[36]
  TGI: > 100 µM
[37]
  TGI: > 100 µM
[38]
  TGI: > 100 µM
[39]
  TGI: > 100 µM
[40]
  TGI: > 100 µM
[41]
  TGI: 2.04 µM
[42]
  TGI: > 100 µM
[43]
  TGI: > 100 µM
[44]
  TGI: > 100 µM
[45]
  TGI: > 100 µM
[46]
  TGI: > 100 µM
[47]
  TGI: > 100 µM
[48]
  TGI: > 100 µM
[49]
  TGI: > 100 µM
[50]
  TGI: > 100 µM
[51]
  TGI: > 100 µM
[52]
  TGI: > 100 µM
[53]
  TGI: > 100 µM
[54]
  TGI: > 100 µM

## COc1ccc(/C=C2\N=C(c3ccccc3)OC2=O)cc1OC(C)=O
[55]
  TGI: > 100 µM
[1]
  TGI: > 100 µM
[2]
  TGI: > 100 µM
[3]
  TGI: > 100 µM
[4]
  TGI: > 100 µM
[56]
  TGI: > 100 µM
[5]
  TGI: > 100 µM
[6]
  TGI: 26.1 µM
[7]
  TGI: > 100 µM
[8]
  TGI: > 100 µM
[9]
  TGI: > 100 µM
[11]
  TGI: > 100 µM
[12]
  TGI: > 100 µM
[13]
  TGI: > 100 µM
[14]
  TGI: > 100 µM
[15]
  TGI: > 100 µM
[16]
  TGI: 45 µM
[17]
  TGI: > 100 µM
[18]
  TGI: > 100 µM
[19]
  TGI: > 100 µM
[20]
  TGI: > 100 µM
[22]
  TGI: > 100 µM
[23]
  TGI: > 100 µM
[24]
  TGI: > 100 µM
[25]
  TGI: 68.6 µM
[26]
  TGI: 83.5 µM
[27]
  TGI: > 100 µM
[57]
  TGI: > 100 µM
[29]
  TGI: > 100 µM
[30]
  TGI: > 100 µM
[32]
  TGI: > 100 µM
[33]
  TGI: > 100 µM
[34]
  TGI: > 100 µM
[35]
  TGI: > 100 µM
[36]
  TGI: > 100 µM
[37]
  TGI: > 100 µM
[38]
  TGI: > 100 µM
[39]
  TGI: > 100 µM
[40]
  TGI: > 100 µM
[41]
  TGI: 74.4 µM
[42]
  TGI: > 100 µM
[43]
  TGI: > 100 µM
[44]
  TGI: > 100 µM
[45]
  TGI: > 100 µM
[46]
  TGI: > 100 µM
[47]
  TGI: > 100 µM
[48]
  TGI: > 100 µM
[58]
  TGI: > 100 µM
[49]
  TGI: > 100 µM
[50]
  TGI: > 100 µM
[51]
  TGI: > 100 µM
[53]
  TGI: > 100 µM
[54]
  TGI: > 100 µM

## N=c1oc2ccccc2cc1C(=O)Nc1nccs1
[55]
  TGI: > 100 µM
[1]
  TGI: > 100 µM
[2]
  TGI: 64.7 µM
[3]
  TGI: 45.6 µM
[4]
  TGI: > 49.2 µM
[56]
  TGI: > 92.3 µM
[5]
  TGI: > 50.7 µM
[6]
  TGI: 22.1 µM
[7]
  TGI: 0.22 µM
[8]
  TGI: > 84 µM
[9]
  TGI: > 100 µM
[10]
  TGI: 3.82 µM
[11]
  TGI: > 100 µM
[12]
  TGI: > 100 µM
[13]
  TGI: 6.3 µM
[14]
  TGI: 26.8 µM
[15]
  TGI: > 100 µM
[16]
  TGI: 47.7 µM
[17]
  TGI: > 100 µM
[18]
  TGI: > 100 µM
[20]
  TGI: > 79.4 µM
[21]
  TGI: > 100 µM
[22]
  TGI: > 100 µM
[23]
  TGI: > 100 µM
[24]
  TGI: > 86.3 µM
[25]
  TGI: > 100 µM
[26]
  TGI: 65.4 µM
[27]
  TGI: 43.3 µM
[28]
  TGI: > 100 µM
[57]
  TGI: 99 µM
[29]
  TGI: > 76.5 µM
[30]
  TGI: > 100 µM
[31]
  TGI: > 79.5 µM
[32]
  TGI: > 100 µM
[33]
  TGI: > 100 µM
[34]
  TGI: > 74.2 µM
[35]
  TGI: > 100 µM
[36]
  TGI: > 100 µM
[37]
  TGI: > 100 µM
[38]
  TGI: > 100 µM
[39]
  TGI: > 100 µM
[40]
  TGI: > 83.9 µM
[41]
  TGI: 20 µM
[42]
  TGI: > 95.3 µM
[43]
  TGI: > 100 µM
[44]
  TGI: > 100 µM
[45]
  TGI: 50.5 µM
[46]
  TGI: > 100 µM
[47]
  TGI: > 100 µM
[48]
  TGI: > 100 µM
[58]
  TGI: > 100 µM
[49]
  TGI: > 83.4 µM
[50]
  TGI: > 92.4 µM
[51]
  TGI: 7.71 µM
[52]
  TGI: > 88.1 µM
[53]
  TGI: > 100 µM
[54]
  TGI: 5.92 µM
